Publication PMC11259170, “Small-molecule probe for IBD risk variant GPR65 I231L alters cytokine signaling networks through positive allosteric modulation” (Science Advances, 2024)
Like-named read-outs stand apart in the source and are kept apart here.

Columns and labels:
[1] = target: T1, hGPR65 (Homo sapiens, UniProt Q8IYL9); assay: cAMP detection in HeLa expression cell line, hGPR65; type: cell-based; conditions: for Emax: HeLa, relative to 100uM forskolin (100%) and DMSO (0%), read-out: hGPR Max Activity %; for EC50: read-out: hGPR EC50
T1 construct: expressed in transfected cells; host or cells: HeLa (ATCC CCL-2), lentiviral transduction, pLX317
T1 sequence (Q8IYL9 whole entry): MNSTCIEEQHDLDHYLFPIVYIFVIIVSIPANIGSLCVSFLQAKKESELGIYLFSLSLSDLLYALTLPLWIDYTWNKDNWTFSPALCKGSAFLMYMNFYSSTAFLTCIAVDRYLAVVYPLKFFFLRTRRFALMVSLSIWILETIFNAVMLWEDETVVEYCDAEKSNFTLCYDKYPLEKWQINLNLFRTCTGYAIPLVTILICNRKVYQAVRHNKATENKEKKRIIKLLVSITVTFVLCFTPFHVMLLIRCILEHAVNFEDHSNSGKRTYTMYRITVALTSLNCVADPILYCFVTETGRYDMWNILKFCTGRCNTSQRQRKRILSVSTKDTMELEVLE
Description: (§1) HeLa stable expression cell lines were produced by lentiviral transduction. Briefly, lentiviral plasmids for each GPCR with a C-terminal V5 Tag ([…]) were made in a pLX317 backbone using competent Escherichia coli (New England Biolabs, C3050H). Lenti-X 293 T (Takara, 632810) cells were transfected with the lentiviral plasmids to produce virus. Low-passage HeLa cells (American Type Culture Collection, CCL-2) were then transduced with lentivirus. After 48 hours, HeLa cells were cultured under selection with puromycin (3 μg/ml) and allowed to recover and expand before storing stocks in liquid nitrogen.
(§2) cAMP was measured in cells using the Lance Ultra cAMP Kit. HeLa cells were cultured under puromycin (3 μg/ml) selection. One day before the experiment, cells were seeded in T75 flasks and allowed to adhere overnight. On the day of the experiment, cells were washed twice with Dulbecco’s PBS and lifted using prewarmed 1× versene solution (Gibco, 15040066). Cells were counted in HBSS (Gibco, 14025092) and then resuspended in stimulation buffer prepared according to the manufacturer’s instructions and adjusted to pH 7.2 using 1 M sodium hydroxide. Cells were added to the plate at a density of 1500 cells per well in white opaque 384-well assay ready microplates containing 100 nl of 10 mM compound in DMSO. Cells were stimulated for 30 min at RT, then lysed and incubated with detection reagents for 1 hour in the dark at RT. Plates were read on BMG Labtech PHERAstar FSX (excitation, 337 nm; emission, 620 and 665 nm). Data analysis was performed using GraphPad Prism.

[2] = target: T2, mGPR65 (Mus musculus, UniProt Q61038); assay: cAMP detection in HeLa expression cell line, mGPR65; type: cell-based; conditions: for Emax: HeLa, relative to 100uM forskolin (100%) and DMSO (0%), read-out: mGPR Max Activity %; for EC50: read-out: mGPR EC50
T2 construct: expressed in transfected cells; host or cells: HeLa (ATCC CCL-2), lentiviral transduction, pLX317
T2 sequence (Q61038 whole entry): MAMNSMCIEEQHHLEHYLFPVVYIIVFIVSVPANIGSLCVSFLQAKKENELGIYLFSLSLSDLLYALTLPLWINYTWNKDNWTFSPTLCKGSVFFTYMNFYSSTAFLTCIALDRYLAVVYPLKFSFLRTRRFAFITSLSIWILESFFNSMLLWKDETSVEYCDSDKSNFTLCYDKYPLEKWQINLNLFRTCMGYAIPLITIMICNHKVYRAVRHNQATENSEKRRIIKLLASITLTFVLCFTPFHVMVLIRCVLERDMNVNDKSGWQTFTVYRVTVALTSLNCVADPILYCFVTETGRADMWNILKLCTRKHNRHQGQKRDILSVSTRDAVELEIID
Description: as §1, §2

[3] = tested on: GFP-expressing HeLa cells; assay: cAMP detection in HeLa expression cell line, GFP control; type: cell-based, human; conditions: Homo sapiens, HeLa; for Emax: relative to 100uM forskolin (100%) and DMSO (0%), read-out: GFP Max Activity %
Description: as §1, §2

[4] = 1st hGPR column pair, NA = no activity
[5] = 2nd hGPR column pair, NA = no activity
[6] = 1st mGPR column pair, NA = no activity
[7] = 2nd mGPR column pair, NA = no activity
[8] = 2nd GFP column pair, NA = no activity
[9] = 1st GFP column pair, NA = no activity

Row | SMILES | Emax ([1]; first pair) [%] | Emax ([1]; second pair) [%] | EC50 ([1]; SAR cAMP assay, first EC50/Max pair of hGPR columns) [nM] | EC50 ([1]; SAR cAMP assay, second EC50/Max pair of hGPR columns) [nM] | Emax ([2]; second pair) [%] | EC50 ([2]; SAR cAMP assay, second EC50/Max pair of mGPR columns) [nM] | EC50 ([3]; SAR cAMP assay, second EC50/Max pair of GFP control columns) [nM] | Emax ([3]; second pair) [%] | EC50 [1, 4] [nM] | EC50 [1, 5] [nM] | Emax [1, 4] [%] | Emax [1, 5] [%] | EC50 [2, 6] [nM] | EC50 [2, 7] [nM] | Emax [2, 7] [%] | Emax ([2]; NA = no activity) [%] | EC50 [3, 8] [nM] | Emax [3, 8] [%] | EC50 [3, 9] [nM] | Emax [3, 9] [%]
1 | Cc1ccc(NC(=O)c2cnn3c(O)cc(-c4ccc(C5CCCCC5)cc4)nc23)cc1 [BRD5881] | 39.5 | 95.7 | 3880 | 90600 | 9.83 | 579 | 453 | 1.64 | – | – | – | – | – | – | – | – | – | – | – | –
2 | CCOCc1ccc(-c2cc(O)n3ncc(C(=O)Nc4ccccc4)c3n2)cc1 [BRD5063] | – | – | – | – | – | – | – | – | 4060 | 5840 | 76.1 | 66.6 | 5470 | 2730 | 38 | 52.1 | 190 | 1.85 | – | –
3 | CC(C)OCc1ccc(-c2cc(O)n3ncc(C(=O)Nc4cccnc4)c3n2)cc1 [BRD5077] | – | – | – | – | – | – | – | – | 5550 | 8260 | 57.8 | 70.1 | 2510 | 2720 | 62.4 | 70 | 1620 | 3.65 | – | –
4 | Cc1ccc(NC(=O)c2cnn3c(O)cc(-c4ccc(COC(C)C)cc4)nc23)c(Cl)c1 [BRD5081] | – | – | – | – | – | – | – | – | 4260 | 7630 | 80.6 | 63.4 | 1010 | 1140 | 60.4 | 66.3 | – | – | 1620 | 2.48
5 | CNC(=O)c1ccc(-c2cc(O)n3ncc(C(=O)Nc4ccc(C)cc4)c3n2)cc1 [BRD5083] | – | – | – | – | – | – | – | – | 26200 | – | 75.2 | – | – | 99600 | 106 | – | 6270 | 1.9 | – | –
6 | CCCc1cc(-c2cc(O)n3ncc(C(=O)Nc4ccc(C)cc4)c3n2)no1 [BRD8472] | – | – | – | – | – | – | – | – | 1250 | 790 | 67.7 | 51.3 | 103 | 397 | 55.4 | 59.4 | – | – | 24900 | 2.75
7 | CCCc1cc(-c2cc(O)n3ncc(C(=O)Nc4ccccc4)c3n2)no1 [BRD0124] | – | – | – | – | – | – | – | – | 1120 | 1750 | 62.1 | 71.8 | 247 | 151 | 56.2 | 63 | 24600 | 2.25 | – | –
8 | Cc1ccc(NC(=O)c2cnn3c(O)cc(-c4ccc(N5CCN(C)CC5)nc4)nc23)cc1 [BRD5070] | – | – | – | – | – | – | – | – | 1310 | 68.7 | 13.4 | 4.57 | 1350 | 2150 | 34.4 | 38.5 | 421 | 2.13 | 3200 | 2.48
